In patent publication US20260008758A1, “LINEAR DIPEPTIDYL PEPTIDASE 1 INHIBITORS AND USES THEREOF” (Insmed Incorporated, priority 2024, published 2026):

Experiments:
DPP1 in HL-60 cells = DPP1 in HL-60 cells (Homo sapiens (Human), UniProt P53634); assay: DPP1 cell single-point percent inhibition testing (HL-60 cells, H-Gly-Phe-AFC substrate); assay type: cell-based; details: read-out: DPP1 cell % inhibition @ 5 nM, 5 nM compound, 100 μM H-Gly-Phe-AFC, 60 min pre-incubation at 37° C.
Protocol: HL-60 cells (ATCC; Manassas, VA) were maintained in RPMI-1640 supplemented with 20% heat-inactivated FBS and 1× Antibiotic Antimycotic (Cytiva; Marlborough, MA). Media was changed every three to four days and cells were not allowed to exceed 1×10^6 cells per mL. Prior to assay, cells were collected by centrifugation at 500 rcf for 3 minutes, resuspended in RPMI (with no additional supplements) and counted. Cells were diluted in RPMI to a concentration of 5×10^5 live cells per mL and transferred to black 96-well plates for assay, 60 μL per well. Test articles were diluted to 25 nM in RPMI plus 0.5% DMSO, and 20 μL was added to each assay well. Compound was allowed to pre-incubate with cells with gentle shaking at 100 rpm for 60 minutes at 37° C. in a cell culture incubator maintained at 5% CO2, after which 20 μL of 500 μM H-Gly-Phe-AFC cell-permeable substrate (MP Biomedicals; Solon, OH) in RPMI was added to each well, giving final compound concentration of 5 nM, a final substrate concentration of 100 μM and a final DMSO concentration of 0.1%. Plates were returned to the incubator with shaking at 100 rpm for 30 minutes, after which fluorescence was measured at Excitation/Emission 400/505 nm. Percent Inhibition was calculated from RFU values by first subtracting background values (wells in which RPMI was substituted for cells) from each well, and then subtracting background-subtracted RFU derived from wells that received a final concentration of 10 μM brensocatib. This value represents the non-specific substrate cleavage from the HL-60 cells, and the remaining RFU should theoretically be solely the contribution of DPP1 enzyme activity. The final percent inhibition value was calculated for each test article based on remaining RFU compared to RFU from wells that received only vehicle control.

human DPP1 enzyme = human DPP1 enzyme (Homo sapiens (Human), UniProt P53634); assay: Human DPP1 enzyme single-point percent inhibition testing (HL-60 lysate, H-Gly-Arg-AMC substrate); assay type: biochemical; details: read-out: human DPP1 enzyme % inhibition @ 10 nM, 10 nM compound, 400 μM H-Gly-Arg-AMC, 10 min pre-incubation at 37° C.
Protocol: A crude lysate of HL-60 cells (ATCC; Manassas, VA) was used as a source of human DPP1 enzyme in the assay. Lysate was prepared in 1% Triton X-100 in PBS at a concentration of 20,000 live cells per […] of lysis buffer and was centrifuged at 16,000 rcf for 10 minutes at 4° C., after which supernatant was collected and flash-frozen in liquid nitrogen. Test articles were applied to human DPP1 enzyme in Assay Buffer (25 mM MES pH 6.0, 50 mM NaCl, 5 mM DTT) in a total reaction volume of 125 μL. 25 μL of compound diluted to 50 nM in Assay Buffer plus 5% DMSO was first added to 50 μL of HL-60 lysate diluted to contain a DPP1 enzyme concentration of roughly 1 ng/μL and allowed to pre-incubate for 10 minutes at 37° C. after which 50 μL of 1000 μM H-Gly-Arg-AMC substrate (Bachem; St. Torrance, CA) was added, giving final compound concentration of 10 nM, a final substrate concentration of 400 μM and a final DMSO concentration of 1%. Substrate cleavage was measured for 90 minutes at 37° C., with fluorescence at Excitation/Emission 350/450 nm measured every 5 minutes. DPP1 concentration was interpolated based on its activity relative to a standard curve of activated human recombinant DPP1 enzyme. Percent inhibition at 10 nM was calculated for each test article based on remaining DPP1 activity compared to enzyme activity in wells that received only vehicle control.

Sequence of human DPP1 enzyme (P53634 25-134): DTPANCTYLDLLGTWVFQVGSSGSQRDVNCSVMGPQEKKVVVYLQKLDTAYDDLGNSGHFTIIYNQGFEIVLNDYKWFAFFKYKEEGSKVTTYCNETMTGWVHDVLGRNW
Sequence of human DPP1 enzyme (P53634 231-394): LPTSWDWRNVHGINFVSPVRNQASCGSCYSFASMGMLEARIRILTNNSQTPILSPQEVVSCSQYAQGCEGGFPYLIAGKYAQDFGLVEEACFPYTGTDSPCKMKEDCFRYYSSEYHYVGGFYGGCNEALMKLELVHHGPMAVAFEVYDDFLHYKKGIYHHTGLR
Sequence of human DPP1 enzyme (P53634 395-463): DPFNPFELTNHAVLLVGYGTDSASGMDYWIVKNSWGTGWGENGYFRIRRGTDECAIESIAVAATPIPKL
Sequence of DPP1 in HL-60 cells (P53634 25-134): as the sequence (P53634 25-134) above
Sequence of DPP1 in HL-60 cells (P53634 231-394): as the sequence (P53634 231-394) above
Sequence of DPP1 in HL-60 cells (P53634 395-463): as the sequence (P53634 395-463) above

| SMILES | inhibition at 0.005 µM (DPP1 in HL-60 cells) [%] | inhibition at 0.01 µM (human DPP1 enzyme) [%] |
| --- | --- | --- |
| COCCN(C)CCn1c(=O)oc2ccc(-c3ccc(C[C@@H](C#N)NC(=O)[C@@H](O)CN(C)C)c(F)c3)cc21 [Compound 368] | ≤ 76.5 | ≥ 66.7 |
| CN(C)C[C@H](O)C(=O)N[C@H](C#N)Cc1ccc(-c2ccc3cnn(C)c3c2)cc1 [Compound 370] | ≤ 76.5 | ≤ 40 |
| CN(C)C[C@H](O)C(=O)N[C@H](C#N)Cc1ccc(-c2ccc3nnn(C)c3c2)cc1 [Compound 371] | ≤ 76.5 | ≤ 40 |
| CN(C)C[C@H](O)C(=O)N[C@H](C#N)Cc1ccc(-c2cnc3c(n2)CCCC3)cc1 [Compound 372] | ≤ 76.5 | ≤ 40 |
| CN(C)C[C@H](O)C(=O)N[C@H](C#N)Cc1ccc(-c2ccc3cnn(C)c3c2)cc1F [Compound 374] | ≤ 76.5 | ≤ 40 |
| CN(C)C[C@H](O)C(=O)N[C@H](C#N)Cc1ccc(-c2cnc3c(n2)CCCC3)cc1F [Compound 376] | ≤ 76.5 | ≤ 40 |
| CN(C)C[C@H](O)C(=O)N[C@H](C#N)Cc1ccc(-c2ccc(S(=O)(=O)N3CCC3)cc2)cc1F [Compound 377] | ≤ 76.5 | ≤ 40 |
| CN(C)C[C@H](O)C(=O)N[C@H](C#N)Cc1cc2c(cc1F)-c1ccc(F)cc1CO2 [Compound 378] | ≤ 76.5 | ≤ 40 |
| CN(C)C[C@](C)(O)C(=O)NC(C#N)Cc1cc2c(cc1F)-c1cc(C3COC3)c(F)cc1CO2 (stereo partly shown) [Compound 379] | ≤ 76.5 | ≤ 40 |
| CN(C)C[C@](C)(O)C(=O)N[C@H](C#N)Cc1cc2c(cc1F)-c1ccc(C#N)cc1CO2 [Compound 380] | ≤ 76.5 | ≤ 40 |
| CN(C)C[C@](C)(O)C(=O)NC(C#N)Cc1cc2c(cc1F)-c1cc3c(cc1CO2)oc(=O)n3C (stereo partly shown) [Compound 381] | 76.5 to 93.9 | 40 to 66.7 |
| CN(C)C[C@](C)(O)C(=O)NC(C#N)Cc1cc2c(cc1F)-c1cc(C#N)ccc1CO2 (stereo partly shown) [Compound 382] | ≤ 76.5 | ≤ 40 |
| CN(C)C[C@](C)(O)C(=O)NC(C#N)Cc1cc2c(cc1F)-c1ccc3oc(=O)n(C)c3c1CO2 (stereo partly shown) [Compound 383] | ≤ 76.5 | ≤ 40 |
| CN(C)C[C@](C)(O)C(=O)N[C@H](C#N)Cc1ccc(-c2ccc3c(c2)C2(CC3)CCN(C)CC2)cc1 [Compound 384] | ≤ 76.5 | ≥ 66.7 |
| CN(C)C[C@](C)(O)C(=O)N[C@H](C#N)Cc1ccc(-c2ccc3c(c2)C2(CCCN(C)C2)C(=O)N3C)cc1 (stereo partly shown) [Compound 385] | ≥ 93.9 | ≥ 66.7 |
| CN(C)CCn1c(=O)oc2ccc(-c3ccc(C[C@@H](C#N)NC(=O)[C@@](C)(O)CN(C)C)cc3)cc21 [Compound 386] | 76.5 to 93.9 | ≥ 66.7 |
| CN(C)C[C@](C)(O)C(=O)N[C@H](C#N)Cc1ccc(-c2ccc3c(c2)C2(CN(C)C2)OC3=O)cc1 [Compound 388] | ≥ 93.9 | ≥ 66.7 |
| CCN1C(=O)Cc2ccc(-c3ccc(C[C@@H](C#N)NC(=O)[C@@](C)(O)CN(C)C)cc3)cc21 [Compound 389] | 76.5 to 93.9 | 40 to 66.7 |
| CN(C)C[C@](C)(O)C(=O)N[C@H](C#N)Cc1ccc(-c2ccc3c(c2)C2(CCN(C)C2)OC3=O)cc1 (stereo partly shown) [Compound 390] | ≤ 76.5 | ≥ 66.7 |
| CN(C)C[C@](C)(O)C(=O)N[C@H](C#N)Cc1ccc(-c2ccc3cnn(C4CCN(C)CC4)c3c2)cc1 [Compound 391] | ≤ 76.5 | ≥ 66.7 |
| CN(C)C[C@](C)(O)C(=O)N[C@H](C#N)Cc1ccc(-c2ccc3c(c2)C2(CCN(C4COC4)CC2)OC3)cc1 [Compound 392] | ≤ 76.5 | ≥ 66.7 |

| SMILES | inhibition at 0.005 µM (DPP1 in HL-60 cells) [%] | inhibition at 0.01 µM (human DPP1 enzyme) [%] |
| --- | --- | --- |
| CN(C)C[C@](C)(O)C(=O)N[C@H](C#N)Cc1ccc(-c2ccc3oc(=O)n(CCN4CCOCC4)c3c2)cc1 [Compound 393] | ≤ 76.5 | 40 to 66.7 |
| CN(C)C[C@](C)(O)C(=O)N[C@H](C#N)Cc1ccc(-c2ccc(CN3CCN(C)CC3)cc2)cc1 [Compound 394] | 76.5 to 93.9 | ≤ 40 |
| CN(C)C[C@](C)(O)C(=O)N[C@H](C#N)Cc1ccc(-c2ccc3oc(=O)n(C)c3c2)cc1 [Compound 395] | 76.5 to 93.9 | ≥ 66.7 |
| CN(C)C[C@](C)(O)C(=O)N[C@H](C#N)Cc1ccc(-c2ccc3c(n2)CCCN3)cc1 [Compound 396] | ≤ 76.5 | ≤ 40 |
| CN(C)C[C@](C)(O)C(=O)N[C@H](C#N)Cc1ccc(-c2ccc3c(c2)C2(CC3)CCN(C)CC2)cc1F [Compound 397] | ≤ 76.5 | ≥ 66.7 |
| CN(C)C[C@](C)(O)C(=O)N[C@H](C#N)Cc1ccc(-c2ccc3c(c2)C2(CCCN(C)C2)C(=O)N3C)cc1F (stereo partly shown) [Compound 398] | ≥ 93.9 | ≥ 66.7 |
| CN(C)CCn1c(=O)oc2ccc(-c3ccc(C[C@@H](C#N)NC(=O)[C@@](C)(O)CN(C)C)c(F)c3)cc21 [Compound 399] | ≥ 93.9 | ≥ 66.7 |
| Cc1cn2cc(-c3ccc(C[C@@H](C#N)NC(=O)[C@@](C)(O)CN(C)C)c(F)c3)cc2c(C)n1 [Compound 400] | 76.5 to 93.9 | 40 to 66.7 |
| CN(C)C[C@](C)(O)C(=O)N[C@H](C#N)Cc1ccc(-c2ccc3c(c2)C2(CN(C)C2)OC3=O)cc1F [Compound 401] | ≥ 93.9 | ≥ 66.7 |
| CCN1C(=O)Cc2ccc(-c3ccc(C[C@@H](C#N)NC(=O)[C@@](C)(O)CN(C)C)c(F)c3)cc21 [Compound 402] | 76.5 to 93.9 | ≥ 66.7 |
| CN(C)C[C@](C)(O)C(=O)N[C@H](C#N)Cc1ccc(-c2ccc3c(c2)C2(CCN(C)C2)OC3=O)cc1F (stereo partly shown) [Compound 403] | 76.5 to 93.9 | ≥ 66.7 |
| CN(C)C[C@](C)(O)C(=O)N[C@H](C#N)Cc1ccc(-c2ccc3cnn(C4CCN(C)CC4)c3c2)cc1F [Compound 404] | ≤ 76.5 | ≥ 66.7 |
| CN(C)C[C@](C)(O)C(=O)N[C@H](C#N)Cc1ccc(-c2ccc3c(c2)C2(CCN(C4COC4)CC2)OC3)cc1F [Compound 405] | 76.5 to 93.9 | ≥ 66.7 |
| CN(C)C[C@](C)(O)C(=O)N[C@H](C#N)Cc1ccc(-c2ccc3oc(=O)n(CCN4CCOCC4)c3c2)cc1F [Compound 406] | 76.5 to 93.9 | ≥ 66.7 |
| CN(C)C[C@](C)(O)C(=O)N[C@H](C#N)Cc1ccc(-c2ccc(CN3CCN(C)CC3)cc2)cc1F [Compound 407] | ≥ 93.9 | 40 to 66.7 |
| CN(C)C[C@](C)(O)C(=O)N[C@H](C#N)Cc1ccc(-c2ccc3oc(=O)n(C)c3c2)cc1F [Compound 408] | ≥ 93.9 | ≥ 66.7 |
| CN(C)C[C@](C)(O)C(=O)N[C@H](C#N)Cc1ccc(-c2ccc3c(n2)CCCN3)cc1F [Compound 409] | 76.5 to 93.9 | ≥ 66.7 |
| COCCN(C)CCn1c(=O)oc2ccc(-c3ccc(C[C@@H](C#N)NC(=O)[C@@](C)(O)CN(C)C)c(F)c3)cc21 [Compound 410] | ≥ 93.9 | ≥ 66.7 |
| CN(C)C[C@](C)(O)C(=O)N[C@H](C#N)Cc1ccc(-c2ccc3nnn(C)c3c2)cc1 [Compound 413] | 76.5 to 93.9 | 40 to 66.7 |
| CN(C)C[C@](C)(O)C(=O)N[C@H](C#N)Cc1ccc(-c2cnc3c(n2)CCCC3)cc1 [Compound 414] | ≤ 76.5 | ≤ 40 |
